Results taken from patent publication US5393667A, “Eucaryotic NAD cyclases” (priority 1993, dated 1995).
One block for each molecule: values may come before it.

Columns and labels:
[1] = molecular target: T1, eucaryotic NAD cyclases of this invention (example: Aplysia californica NAD cyclase) (Aplysia californica, UniProt P29241); experiment: Resistance of NAD cyclase to inhibitors of eucaryotic NADases; format: biochemical; conditions: for inhibition of NAD cyclase by inhibitor: concentration not given
T1 sequence (P29241 25-282): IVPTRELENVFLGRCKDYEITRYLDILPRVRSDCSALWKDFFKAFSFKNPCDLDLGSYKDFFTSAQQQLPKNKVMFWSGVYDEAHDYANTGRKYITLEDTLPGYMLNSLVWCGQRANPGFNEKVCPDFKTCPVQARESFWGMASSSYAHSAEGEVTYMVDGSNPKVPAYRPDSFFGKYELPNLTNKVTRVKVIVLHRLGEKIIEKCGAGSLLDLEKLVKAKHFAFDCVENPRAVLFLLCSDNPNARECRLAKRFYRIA

[2] = molecular target: T2, Aplysia californica NAD cyclase (ovotestis NADase), purified, wild type (Aplysia californica, UniProt P29241); experiment: NAD cyclase velocity vs. NAD concentration ([14C]-nicotinamide release); format: biochemical
T2 construct: from tissue; host or cells: ovotestis (Aplysia)
T2 sequence (P29241 25-282): T1 sequence (P29241 25-282)
Description: (§1) Referring to FIG. 4, various concentrations (0.05 to 5.0 mM) of [carbonyl-^14 C]NAD (specific activity=1.6 nCi/nmol) and 5×10^-9 M ovotestis NADase were incubated in 300 mM potassium phosphate buffer (pH 7.0) at 30° C. The amount of NAD cleaved during the incubation period was determined by measuring the amount of [^14 C]-nicotinamide produced. The data was fitted to the equation f=a+b*exp(-c*x) using a nonlinear curve fitting program (SigmaPlot, version 4.0). The estimated Km of the NAD Cyclase is 0.7 mM and the Vmax is approximately 32 nmoles/minute/35 ng enzyme. This corresponds to a turnover rate of about 27,000 moles NAD/minute/mole of NAD Cyclase at 30° C.

[3] = test system: rat liver NAD glycohydrolase; conditions: Moss et al., J. Biol. Chem. 257:5755-5759, 1982; cited from earlier work
[4] = substrate: NC(=O)c1ccc[n+]([C@@H]2O[C@H](COP(=O)([O-])OP(=O)(O)OC[C@H]3O[C@@H](n4cnc5c(N)ncnc54)[C@H](O)[C@@H]3O)[C@@H](O)[C@H]2O)c1; experiment: NAD cyclase velocity vs. NAD concentration ([14C]-nicotinamide release); format: biochemical, Aplysia californica; conditions: other: 0.05 to 5.0 mM [carbonyl-14C]NAD, 5x10^-9 M enzyme, 300 mM potassium phosphate pH 7.0, 30° C., estimated by nonlinear curve fit
Description: as §1

Molecule: O[C@H](CS)[C@H](O)CS (racemic) [DTT, dithiothreitol]
- inhibition of NAD cyclase by DTT ([1]; 1 mM DTT): resistant

Molecule: NC(=O)c1ccc[n+]([C@@H]2O[C@H](COP(=O)([O-])OP(=O)(O)OC[C@H]3O[C@@H](n4cnc5c(N)ncnc54)[C@H](O)[C@@H]3O)[C@@H](O)[C@H]2O)c1 [NAD, nicotinamide adenine dinucleotide]
- Vmax ([2]; 300 mM potassium phosphate pH 7.0, 30° C.): approximately 32 nmoles/minute/35 ng enzyme
- turnover rate ([2]; at 30° C., corresponds to Vmax): about 27,000 moles NAD/minute/mole of NAD Cyclase
- Km [3]: ~18 µM

B1: Aplysia californica NAD cyclase (ovotestis NADase), purified, wild type (Aplysia californica) (protein)
chain: T1 sequence (P29241 25-282)
notes: 5×10^-9 M ovotestis NADase were incubated in 300 mM potassium phosphate buffer; from tissue; host or cells: ovotestis (Aplysia)
- Km [4]: 0.7 mM

The remaining lines, values ahead:

- inhibition of NAD cyclase by inhibitor [1]: resistant
Molecule: CC(=O)c1ccc[n+]([C@@H]2O[C@H](COP(=O)([O-])OP(=O)(O)OC[C@H]3O[C@@H](n4cnc5c(N)ncnc54)[C@H](O)[C@@H]3O)[C@@H](O)[C@H]2O)c1 [3-acetylpyridine adenine dinucleotide]

- inhibition of NAD cyclase by inhibitor [1]: resistant
Molecule: NNC(=O)c1ccncc1 [isonicotinic acid hydrazide]
